Reference: paper PMC6753678, “Fueling Open Innovation for Malaria Transmission-Blocking Drugs: Hundreds of Molecules Targeting Early Parasite Mosquito Stages” (Frontiers in Microbiology, 2019)
Read-outs that look alike come from different tables or passages of the source.

Experiments:
[1] = tested on: P. falciparum late stage (stages IV-V) gametocytes; parameters: method as in Almela et al 2016; settings: ref Almela et al 2016, read-out: Pf GCT ATP IC50, cited from earlier work
HepG2 cells [2] = test: HepG2 cytotoxicity assay; settings: for IC50: read-out: HepG2 cytotoxicity assay IC50, dose response confirmation
Summary of the method: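 Cells are plated at 2,500 per well on compound-treated plates in MEM containing 10% fetal bovine serum and 1% NEAA, then incubated 48 h at 37°C.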

[3] = tested on: P. falciparum late stage (stages IV-V) gametocytes; test: P. falciparum late stage gametocyte ATP depletion assay (Pf GC-ATP); settings: 1: YES; 0: NO; >10-fold selectivity over cytotoxicity
HepG2 cells [4] = settings: cited from earlier work; for HepG2 cytoxicity (Pf GCT ATP screen) / HepG2 cytoxicity: ref Almela et al 2016; for HepG2 cytoxicity (Pf FGAA screen): ref Miguel-Blanco et al 2017
[5] = tested on: 3D7-strain P. falciparum asexual parasites; test: P. falciparum asexual growth inhibition assay (Pf GIA); type: cell-based, Plasmodium falciparum; settings: dose response confirmation; read-out: Pf asexual growth inhibition assays IC50
Summary of the method: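 3D7 parasites at 0.25% parasitemia, 2% hematocrit were exposed to compounds in dose response for 72 h at 37°C under 5% CO2, 5% O2. Viability read as parasite LDH activity (nitro blue tetrazolium, A650) after freeze-thaw; inhibition scaled to chloroquine (50 μM) and DMSO controls, mean of three biological replicates.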

[6] = tested on: P. berghei ookinete development; settings: for % inhibition, Replicate A / % inhibition, Replicate B: primary screen at 1 μM; for Is compound selective in assay? Pb ODA active?: 1: YES, 0: NO
[7] = tested on: P. falciparum female gametocytes; parameters: method as in Miguel-Blanco et al 2017; settings: ref Miguel-Blanco et al 2017, read-out: Pf FGAA IC50, cited from earlier work
[8] = tested on: P. falciparum female gametocytes; test: P. falciparum female gametogenesis assay (Pf FGAA); settings: 1: YES; 0: NO
[9] = P. falciparum late stage gametocyte ATP assay, TCAMS screen
[10] = HepG2 cytotoxicity unified across screens, >25 set to 25.00
[11] = reported with the Pf GCT ATP screen
[12] = P. falciparum late stage gametocyte ATP assay
[13] = HepG2 data listed with Pf GCT ATP screen
[14] = read-out: Pb ODA IC50, this manuscript
[15] = read-out: Pb Ookinete development assay IC50, dose response confirmation
[16] = HepG2 values of the three screens unified

CCc1ccc(CN2CCC(CNC(=O)c3cc(-c4cccc(F)c4)cs3)C2)cc1.O=C(O)C(F)(F)F (centres unmarked) [TCMDC-134432]
IC50 [1, 9]: 1.26 µM | Unified cytotox (HepG2 cells [2]; [10]): 7.22 µM | Is compound selective in assay? Pf GC-ATP active? [3]: 0 (0: NO)

O=C(NCCc1ccccc1)N(Cc1cccc(-c2ccc(CNC3CCCC3)cc2)c1)C1CCN(Cc2ccccc2)CC1.O=C(O)C(F)(F)F [TCMDC-140618]
IC50 [1, 9]: 1.31 µM | Unified cytotox (HepG2 cells [2]; [10]): 7.42 µM | Is compound selective in assay? Pf GC-ATP active? [3]: 0 (0: NO)

O=C(O)C(F)(F)F.O=C(c1cccs1)N(Cc1cccc(-c2ccc(CNC3CCCC3)cc2)c1)C1CCN(Cc2ccccc2)CC1 [TCMDC-140567]
IC50 [1, 9]: 0.85 µM | Unified cytotox (HepG2 cells [2]; [10]): 7.10 µM | Is compound selective in assay? Pf GC-ATP active? [3]: 0 (0: NO)

CN1CCN(CCCN(Cc2ccc(-c3ccc(CNC4CCCC4)cc3)cc2)C(=O)CCC2CCCC2)CC1.O=C(O)C(F)(F)F [TCMDC-140560]
IC50 [1, 9]: 0.53 µM | Unified cytotox (HepG2 cells [2]; [10]): 6.00 µM | Is compound selective in assay? Pf GC-ATP active? [3]: 1 (1: YES)

Br.CCCCC(NCC)c1ccc(OCCOc2ccc(C(CCCC)NCC)cc2)cc1 (centres unmarked) [TCMDC-137612]
IC50 [1, 9]: 0.42 µM | Unified cytotox (HepG2 cells [2]; [10]): 6.10 µM | Is compound selective in assay? Pf GC-ATP active? [3]: 1 (1: YES)

c1ccc(CSC2=NNC(c3ccccn3)S2)cc1 (centres unmarked) [TCMDC-123769]
IC50 ([1]; TCAMS library screen): 7.98 µM | HepG2 cytoxicity (Pf GCT ATP screen) (HepG2 cells [4]; HepG2 value reported with Pf GCT ATP screen): >25 µM

COc1cc(NC(=O)c2sc(-c3ccc(Cl)cc3)cc2NC(=O)c2ccncc2)ccc1OCCN1CCCC1 [TCMDC-135398]
IC50 [1, 9]: 0.15 µM | Unified cytotox (HepG2 cells [2]; [10]): 3.23 µM | Is compound selective in assay? Pf GC-ATP active? [3]: 1 (1: YES)

COc1ccc(-c2cnn3ccc(Nc4cc(OC)c(OC)c(OC)c4)nc23)cc1OC [TCMDC-134383]
IC50 [1, 9]: 1.62 µM | Unified cytotox (HepG2 cells [2]; [10]): 12.90 µM | Is compound selective in assay? Pf GC-ATP active? [3]: 0 (0: NO)

Fc1ccc2[nH]c(-c3cccc(-c4cccc(CNCCN5CCNCC5)c4)c3)nc2c1.O=C(O)C(F)(F)F [TCMDC-132860]
IC50 [1, 9]: 0.74 µM | Unified cytotox (HepG2 cells [2]; [10]): 19.63 µM | Is compound selective in assay? Pf GC-ATP active? [3]: 1 (1: YES)

Nc1ncc(-c2ccc3nccc(-c4ccncc4)c3c2)cc1S(=O)(=O)N1CCOCC1 [TCMDC-134180]
IC50 [1, 9]: 6.9 µM | HepG2 cytoxicity (HepG2 cells [4]; [11]): >25 µM | Unified cytotox (HepG2 cells [2]; [10]): 25.00 µM

CCN(CC)/C(=N/C(=N)Nc1ccc(Cl)c(Cl)c1)NCCCCCCN/C(=N\C(=N)Nc1ccc(Cl)c(Cl)c1)N(CC)CC [TCMDC-131808]
IC50 [1, 12]: 3.44 µM | HepG2 cytoxicity (HepG2 cells [4]; [13]): >25 µM

COc1ccc2nc(-c3cccc(C)n3)nc(Nc3ccncc3)c2c1 [TCMDC-134670]
IC50 [1, 9]: 2.51 µM | HepG2 cytoxicity (HepG2 cells [4]; [11]): >25 µM | Unified cytotox (HepG2 cells [2]; [10]): 25.00 µM

CCC1=C(C[C@H]2NCCc3cc(OC)c(OC)cc32)C[C@H]2c3cc(OC)c(OC)cc3CCN2C1.Cl [TCMDC-131825]
IC50 [1]: 0.3 µM | IC50 [5]: 0.127 µM | HepG2 cytoxicity (Pf GCT ATP screen) (HepG2 cells [4]; HepG2): >25 µM | % inhibition, Replicate A [6]: 90.26% | % inhibition, Replicate B [6]: 99.18% | IC50 [6, 14]: 0.37 µM | IC50 [6, 15]: 0.367 µM

COc1ccc(-c2cc(-c3ccc(S(C)(=O)=O)cc3)cnc2N)cn1 [TCMDC-133351]
IC50 [1, 9]: 1.18 µM

Cc1cccc(-c2nc(Nc3ccncc3)c3cc(N(C)C)ccc3n2)n1 [TCMDC-135308]
IC50 [1, 9]: 2.66 µM | HepG2 cytoxicity (HepG2 cells [4]; [11]): >25 µM | Unified cytotox (HepG2 cells [2]; [10]): 25.00 µM

Br.Cc1ccnc(Nc2nc(-c3ccccn3)cs2)c1 [TCMDC-125769]
IC50 [1, 12]: 0.0433 µM

Cc1ccc(Nc2nc(-c3ccccn3)cs2)nc1 [TCMDC-125854]
IC50 ([1]; TCAMS screen comparison): 0.16 µM | Unified cytotox (HepG2 cells [2]; HepG2 cytotoxicity unified across the three screens): 33.07 µM | IC50 ([7]; TCAMS screen comparison): 0.0273 µM

Clc1ccc(Nc2nc(-c3ccccn3)cs2)nc1 [TCMDC-123885]
IC50 [1]: 0.67 µM | IC50 [5]: 1.6 µM | HepG2 cytoxicity (Pf GCT ATP screen) (HepG2 cells [4]; HepG2): 20.8 µM | % inhibition, Replicate A [6]: -3.14% | % inhibition, Replicate B [6]: 71.58% | IC50 [6, 14]: 3.7 µM | IC50 [6, 15]: 3.7 µM

Cc1cc(NCCCCCCNc2cc(C)nc3c(C)cccc23)c2cccc(C)c2n1.Cl [TCMDC-125702]
IC50 [1, 12]: 3.32 µM | HepG2 cytoxicity (HepG2 cells [4]; [13]): >25 µM

CC(C)(CN)c1nc(-c2ccc(Br)c(O)c2)c(-c2ccncc2)[nH]1.Cl [TCMDC-140680]
IC50 [5]: 1.55 µM | Is compound selective in assay? Pf FGAA active? [8]: 1 (1: YES) | HepG2 cytoxicity (Pf FGAA screen) (HepG2 cells [4]; HepG2): 45.82 µM | HepG2 cytoxicity (Pb ODA, this manuscript) (HepG2 cells [2]): 47.32 µM | Unified cytotox (HepG2 cells [2]; [16]): 46.57 µM | IC50 (HepG2 cells [2]): 47.3 µM | Is compound selective in assay? Pb ODA active? [6]: 1 (1: YES) | % inhibition, Replicate A [6]: 97.33% | % inhibition, Replicate B [6]: 90.28% | IC50 [6, 14]: 1.93 µM | IC50 [6, 15]: 1.93 µM | IC50 [7]: 0.84 µM

CC(C)(CNC(=O)[C@H]1CCCCN1)c1nc(-c2ccc(Cl)c(O)c2)c(-c2ccncc2)[nH]1.Cl [TCMDC-141070]
IC50 [5]: 0.818 µM | Is compound selective in assay? Pf FGAA active? [8]: 1 (1: YES) | HepG2 cytoxicity (Pf FGAA screen) (HepG2 cells [4]; HepG2): 28.96 µM | HepG2 cytoxicity (Pb ODA, this manuscript) (HepG2 cells [2]): 61.66 µM | Unified cytotox (HepG2 cells [2]; [16]): 45.31 µM | IC50 (HepG2 cells [2]): 61.7 µM | Is compound selective in assay? Pb ODA active? [6]: 1 (1: YES) | % inhibition, Replicate A [6]: 24.32% | % inhibition, Replicate B [6]: 51.52% | IC50 [6, 15]: 2.57 µM | IC50 [7]: 0.53 µM

Nc1nc(N)c2c(ccc3c2ccn3Cc2cccc(F)c2)n1 [TCMDC-137810]
IC50 [5]: < 0.0002 µM | Is compound selective in assay? Pf FGAA active? [8]: 0 (0: NO) | HepG2 cytoxicity (Pf FGAA screen) (HepG2 cells [4]; HepG2): 0.06 µM | HepG2 cytoxicity (Pb ODA, this manuscript) (HepG2 cells [2]): 0.17 µM | Unified cytotox (HepG2 cells [2]; [16]): 0.11 µM | IC50 (HepG2 cells [2]): 0.17 µM | Is compound selective in assay? Pb ODA active? [6]: 0 (0: NO) | % inhibition, Replicate A [6]: 49.99% | % inhibition, Replicate B [6]: 58.69% | IC50 [6, 14]: 0.36 µM | IC50 [6, 15]: 0.359 µM | IC50 [7]: 1.42 µM

Cc1cccc(Nc2nc(N[C@@H]3CCCNC3)nc3cc[nH]c(=O)c23)c1.O=C(O)C(F)(F)F [TCMDC-134835]
IC50 [5]: 0.255 µM | Is compound selective in assay? Pf FGAA active? [8]: 0 (0: NO) | HepG2 cytoxicity (Pf FGAA screen) (HepG2 cells [4]; HepG2): 3.25 µM | HepG2 cytoxicity (Pb ODA, this manuscript) (HepG2 cells [2]): 4.57 µM | Unified cytotox (HepG2 cells [2]; [16]): 3.91 µM | IC50 (HepG2 cells [2]): 4.57 µM | Is compound selective in assay? Pb ODA active? [6]: 0 (0: NO) | % inhibition, Replicate A [6]: 88.28% | % inhibition, Replicate B [6]: 77.31% | IC50 [6, 14]: 0.89 µM | IC50 [6, 15]: 0.889 µM | IC50 [7]: 1.85 µM

Cl.NCC1(c2nc(-c3ccc(Cl)c(O)c3)c(-c3ccncc3)[nH]2)CCCCC1 [TCMDC-141154]
IC50 [5]: 1.48 µM | Is compound selective in assay? Pf FGAA active? [8]: 1 (1: YES) | HepG2 cytoxicity (Pf FGAA screen) (HepG2 cells [4]; HepG2): 11.90 µM | HepG2 cytoxicity (Pb ODA, this manuscript) (HepG2 cells [2]): 46.77 µM | Unified cytotox (HepG2 cells [2]; [16]): 29.34 µM | IC50 (HepG2 cells [2]): 46.8 µM | Is compound selective in assay? Pb ODA active? [6]: 1 (1: YES) | % inhibition, Replicate A [6]: 57.75% | % inhibition, Replicate B [6]: 53.53% | IC50 [6, 14]: 1.01 µM | IC50 [6, 15]: 1 µM | IC50 [7]: 0.21 µM

O=C(Nc1ccc2c(c1)CCCN2S(=O)(=O)c1cccs1)c1cc([N+](=O)[O-])ccc1Cl [TCMDC-125153]
IC50 [1, 12]: 2.66 µM | HepG2 cytoxicity (HepG2 cells [4]; [13]): >25 µM

N#Cc1ccc(Cn2ccc3c4c(N)nc(N)nc4ccc32)cc1 [TCMDC-137820]
IC50 [5]: 0.022 µM | Is compound selective in assay? Pf FGAA active? [8]: 0 (0: NO) | HepG2 cytoxicity (Pf FGAA screen) (HepG2 cells [4]; HepG2): <0.0017 µM | HepG2 cytoxicity (Pb ODA, this manuscript) (HepG2 cells [2]): 0.0017 µM | Unified cytotox (HepG2 cells [2]; [16]): 0.0017 µM | IC50 (HepG2 cells [2]): 0.0017 µM | Is compound selective in assay? Pb ODA active? [6]: 0 (0: NO) | % inhibition, Replicate A [6]: 57.43% | % inhibition, Replicate B [6]: 49.47% | IC50 [6, 14]: 1.54 µM | IC50 [6, 15]: 1.54 µM | IC50 [7]: 1.06 µM
